For orientation: EC50 means the concentration giving half of the maximal effect. A lower EC50 goes with an effect from little substance.

The results in this text go back to US10533000B2, “Metabotrophic glutamate receptor 5 modulators and methods of use thereof” (Sunovion Pharmaceuticals, Inc., priority 2011, dated 2020).

A value given as a limit tells only on which side of the number the result lay.

In this test the target is mGluR5 (Homo sapiens, UniProt P41594). Briefly: mGluR5 positive allosteric modulator (PAM) functional assay. It counts as cell-based.
mGluR5, sequence (P41594 21-1212): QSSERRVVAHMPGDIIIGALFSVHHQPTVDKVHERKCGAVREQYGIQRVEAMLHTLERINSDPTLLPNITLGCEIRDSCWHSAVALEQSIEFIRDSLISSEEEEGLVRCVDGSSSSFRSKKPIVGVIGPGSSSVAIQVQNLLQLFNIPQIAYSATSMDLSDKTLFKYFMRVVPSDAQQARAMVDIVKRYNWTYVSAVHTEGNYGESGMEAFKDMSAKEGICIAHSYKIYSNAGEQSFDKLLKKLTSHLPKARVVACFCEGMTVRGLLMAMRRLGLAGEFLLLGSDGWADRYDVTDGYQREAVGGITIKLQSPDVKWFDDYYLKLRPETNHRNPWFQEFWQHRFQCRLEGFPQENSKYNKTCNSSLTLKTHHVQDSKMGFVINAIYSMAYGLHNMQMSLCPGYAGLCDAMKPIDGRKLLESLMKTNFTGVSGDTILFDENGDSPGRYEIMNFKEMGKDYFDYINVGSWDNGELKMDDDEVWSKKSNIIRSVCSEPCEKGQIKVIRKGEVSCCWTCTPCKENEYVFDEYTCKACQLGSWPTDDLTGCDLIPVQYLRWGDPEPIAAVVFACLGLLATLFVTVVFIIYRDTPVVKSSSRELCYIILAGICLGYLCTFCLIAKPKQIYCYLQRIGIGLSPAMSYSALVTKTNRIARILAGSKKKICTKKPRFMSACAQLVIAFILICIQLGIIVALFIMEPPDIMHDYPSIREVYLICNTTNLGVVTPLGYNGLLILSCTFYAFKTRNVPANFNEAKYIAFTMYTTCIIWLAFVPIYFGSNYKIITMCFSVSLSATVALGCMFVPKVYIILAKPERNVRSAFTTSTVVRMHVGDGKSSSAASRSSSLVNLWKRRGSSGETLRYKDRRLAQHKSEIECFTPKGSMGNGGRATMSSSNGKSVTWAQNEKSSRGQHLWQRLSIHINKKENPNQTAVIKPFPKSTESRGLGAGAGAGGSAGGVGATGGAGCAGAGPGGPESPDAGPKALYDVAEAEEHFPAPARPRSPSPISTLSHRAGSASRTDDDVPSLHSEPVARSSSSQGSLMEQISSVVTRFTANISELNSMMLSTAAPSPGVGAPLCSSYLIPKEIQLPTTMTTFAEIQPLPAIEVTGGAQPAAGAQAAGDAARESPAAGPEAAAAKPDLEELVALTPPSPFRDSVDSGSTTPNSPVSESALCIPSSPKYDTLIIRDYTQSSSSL
Compound `CCC(C)c1nc(-c2ccc(C#Cc3cccc(F)c3)cc2)no1` (centres unmarked) [Compound 29, 5-5-(sec-butyl)-3-(4-((3-fluorophenyl)ethynyl)phenyl)-1,2,4-oxadiazole] had an EC50 of 100 to 300 nM. For `CC(c1nc(-c2ccc(C#Cc3cccc(F)c3)cn2)no1)N1CCCC1` (centres unmarked) [Compound 108, 3-(5-((3-fluorophenyl)ethynyl)pyridin-2-yl)-5-(1-(pyrrolidin-1-yl)ethyl)-1,2,4-oxadiazole], the EC50 was at most 30 nM. Then `CC(c1nc(-c2ccc(C#Cc3ccccn3)cn2)no1)N1CCCC1(C)C` (centres unmarked) [Compound 139, 5-(1-(2,2-dimethylpyrrolidin-1-yl)ethyl)-3-(5-(pyridin-2-ylethynyl)pyridin-2-yl)-1,2,4-oxadiazole], with 30 to 100 nM; and `CCC(OC)c1nc(-c2ccc(C#Cc3cccc(F)c3)cn2)no1` (centres unmarked) [Compound 97, 3-(5-((3-fluorophenyl)ethynyl)pyridin-2-yl)-5-(1-methoxypropyl)-1,2,4-oxadiazole], with at most 30 nM.

In turn, `CCC(C)c1nc(-c2ccc(C#Cc3ccccn3)nc2)no1` (centres unmarked) [Compound 86, 5-(sec-butyl)-3-(6-(pyridin-2-ylethynyl)pyridin-3-yl)-1,2,4-oxadiazole] displayed an EC50 of 30 to 100 nM. Then `CO[C@H]1CN[C@@H](c2nc(-c3ccc(C#Cc4cccc(F)c4)cn3)no2)C1` [Compound 133, 3-(5-((3-fluorophenyl)ethynyl)pyridin-2-yl)-5-((2R,4R)-4-methoxypyrrolidin-2-yl)-1,2,4-oxadiazole], with 30 to 100 nM; and `CCC(c1nc(-c2ccc(C#Cc3ccccn3)cn2)no1)N(C)C` (centres unmarked) [Compound 148, N,N-dimethyl-1-(3-(5-(pyridin-2-ylethynyl)pyridin-2-yl)-1,2,4-oxadiazol-5-yl)propan-1-amine], with 30 to 100 nM.

On to `CCC(CC)c1nnc(-c2ccc(C#Cc3ccncc3)cc2)o1` [Compound 3, 2-(pentan-3-yl)-5-(4-(pyridin-4-ylethynyl)phenyl)-1,3,4-oxadiazole], for which the EC50 lay within 30 to 100 nM. Then `CN(C)Cc1nc(-c2ccc(C#Cc3cccc(F)c3)cn2)no1` [Compound 103, 1-(3-(5-((3-fluorophenyl)ethynyl)pyridin-2-yl)-1,2,4-oxadiazol-5-yl)-N,N-dimethylmethanamine], with 30 to 100 nM. The value for `Fc1cccc(C#Cc2ccc(-c3noc(C4CCCC4)n3)cc2)c1` [Compound 32, 5-cyclopentyl-3-(4-((3-fluorophenyl)ethynyl)phenyl)-1,2,4-oxadiazole] was 100 to 300 nM; that for `CN1C[C@H](O)C[C@@H]1c1nc(-c2ccc(C#Cc3cccc(F)c3)cn2)no1` [Compound 132, (3R,5R)-5-(3-(5-((3-fluorophenyl)ethynyl)pyridin-2-yl)-1,2,4-oxadiazol-5-yl)-1-methylpyrrolidin-3-ol] was 100 to 300 nM. Then `C(#Cc1ccccn1)c1ccc(-c2noc(C3CCCC3)n2)nc1` [Compound 137, 5-cyclopentyl-3-(5-(pyridin-2-ylethynyl)pyridin-2-yl)-1,2,4-oxadiazole], with 30 to 100 nM; and `Fc1cccc(C#Cc2ccc(-c3nnc(C4CCCC4)o3)cc2)c1` [Compound 1, 2-cyclopentyl-5-(4-((3-fluorophenyl)ethynyl)phenyl)-1,3,4-oxadiazole], with 300 to 1000 nM. `CCC(OC)c1nc(-c2ccc(C#Cc3ccccn3)nc2)no1` (centres unmarked) [Compound 89, 5-(1-methoxypropyl)-3-(6-(pyridin-2-ylethynyl)pyridin-3-yl)-1,2,4-oxadiazole] displayed an EC50 of 300 to 1000 nM. `CC(c1nc(-c2ccc(C#Cc3ccncc3)cc2)no1)N(C)C` (centres unmarked) [Compound 80, N,N-dimethyl-1-(3-(4-(pyridin-4-ylethynyl)phenyl)-1,2,4-oxadiazol-5-yl)ethanamine] had an EC50 of at most 30 nM.

For the compound `CCC(OC)c1nc(-c2ccc(C#Cc3ccncc3)nc2)no1` (centres unmarked) [Compound 93], the concentration for a half-maximal effect (EC50) was in the range of 30 to 100 nM. Compound `CC(C)(C)c1noc(-c2ccc(C#Cc3cccc(F)c3)cc2)n1` [Compound 17, 3-(tert-butyl)-5-(4-((3-fluorophenyl)ethynyl)phenyl)-1,2,4-oxadiazole] yielded an EC50 of 300 to 1000 nM. Regarding `COC(C)c1nc(-c2ccc(C#Cc3cccc(F)c3)cn2)no1` (centres unmarked) [Compound 96, 3-(5-((3-fluorophenyl)ethynyl)pyridin-2-yl)-5-(1-methoxyethyl)-1,2,4-oxadiazole], the EC50 is at most 30 nM. Then `N#CCN1CCCC1c1nc(-c2ccc(C#Cc3cccc(F)c3)cn2)no1` (centres unmarked) [Compound 125, 2-(2-(3-(5-((3-fluorophenyl)ethynyl)pyridin-2-yl)-1,2,4-oxadiazol-5-yl)pyrrolidin-1-yl)acetonitrile], with 30 to 100 nM; and `CC[C@H](C)c1nc(-c2ccc(C#Cc3cccc(F)c3)cc2)no1` (single isomer, unassigned) [Compound 30], with 300 to 1000 nM. The value for `C(#Cc1ccc(-c2noc(C3CCCN3)n2)nc1)c1ccccc1` (centres unmarked) [Compound 165, 3-(5-(phenylethynyl)pyridin-2-yl)-5-(pyrrolidin-2-yl)-1,2,4-oxadiazole] was 300 to 1000 nM; that for `Fc1cccc(C#Cc2ccc(-c3noc(C4COCCN4)n3)nc2)c1` (centres unmarked) [Compound 98] was 30 to 100 nM; that for `CNC(C)(C)c1nc(-c2ccc(C#Cc3ccccn3)cn2)no1` [Compound 144, N-methyl-2-(3-(5-(pyridin-2-ylethynyl)pyridin-2-yl)-1,2,4-oxadiazol-5-yl)propan-2-amine] was 300 to 1000 nM. Then `CCC(OC)c1nc(-c2ccc(C#Cc3ccccn3)cn2)no1` (centres unmarked) [Compound 138, 5-(1-methoxypropyl)-3-(5-(pyridin-2-ylethynyl)pyridin-2-yl)-1,2,4-oxadiazole], with 100 to 300 nM; and `CC(C)Cc1nc(-c2ccc(C#Cc3cccc(F)c3)cc2)no1` [Compound 26, 3-(4-((3-fluorophenyl)ethynyl)phenyl)-5-isobutyl-1,2,4-oxadiazole], with 300 to 1000 nM; and `CC(C)c1nc(-c2ccc(C#Cc3cccc(F)c3)cc2)no1` [Compound 24, 3-(4-((3-fluorophenyl)ethynyl)phenyl)-5-isopropyl-1,2,4-oxadiazole], with 300 to 1000 nM.

Turning to `CN1C[C@@H](F)C[C@@H]1c1nc(-c2ccc(C#Cc3ccccn3)cn2)no1` [Compound 156, 5-((2R,4S)-4-fluoro-1-methylpyrrolidin-2-yl)-3-(5-(pyridin-2-ylethynyl)pyridin-2-yl)-1,2,4-oxadiazole], the EC50 lay in the range of 300 to 1000 nM.

Consider `CC(c1nc(-c2ccc(C#Cc3cccc(F)c3)cn2)no1)N(C)C` (centres unmarked) [Compound 104, 1-(3-(5-((3-fluorophenyl)ethynyl)pyridin-2-yl)-1,2,4-oxadiazol-5-yl)-N,N-dimethylethanamine], for which the EC50 lay in the range of 100 to 300 nM.

The compound `CNC(C)c1nc(-c2ccc(C#Cc3cccc(F)c3)cn2)no1` (centres unmarked) [Compound 107, 1-(3-(5-((3-fluorophenyl)ethynyl)pyridin-2-yl)-1,2,4-oxadiazol-5-yl)-N-methylethanamine] had an EC50 of 30 to 100 nM. The value for `CC(C)N1CCCC1c1nc(-c2ccc(C#Cc3cccc(F)c3)cc2)no1` (centres unmarked) [Compound 49, 3-(4-((3-fluorophenyl)ethynyl)phenyl)-5-(1-isopropylpyrrolidin-2-yl)-1,2,4-oxadiazole] was 300 to 1000 nM.

In the case of `CCC(NC1CC1)c1nc(-c2ccc(C#Cc3cccc(F)c3)cn2)no1` (centres unmarked) [Compound 117, N-(1-(3-(5-((3-fluorophenyl)ethynyl)pyridin-2-yl)-1,2,4-oxadiazol-5-yl)propyl)cyclopropanamine], the EC50 is at most 30 nM. Then `C[C@@H](c1nc(-c2ccc(C#Cc3cccc(F)c3)cn2)no1)N(C)C` [Compound 106, (S)-1-(3-(5-((3-fluorophenyl)ethynyl)pyridin-2-yl)-1,2,4-oxadiazol-5-yl)-N,N-dimethylethanamine], with at most 30 nM; and `CN1CC[C@@H]2C[C@@]21c1nc(-c2ccc(C#Cc3ccccn3)cn2)no1` [Compound 172, 5-((1S,5R)-2-methyl-2-azabicyclo[3.1.0]hexan-1-yl)-3-(5-(pyridin-2-ylethynyl)pyridin-2-yl)-1,2,4-oxadiazole], with 300 to 1000 nM.

Compound `CCC(NC1CC1)c1nc(-c2ccc(C#Cc3ccccn3)cn2)no1` (centres unmarked) [Compound 149, N-(1-(3-(5-(pyridin-2-ylethynyl)pyridin-2-yl)-1,2,4-oxadiazol-5-yl)propyl)cyclopropanamine] yielded an EC50 of 300 to 1000 nM. The value for `CCC(CC)c1nnc(-c2ccc(C#Cc3cccc(F)c3)cc2)o1` [Compound 4, 2-(4-((3-fluorophenyl)ethynyl)phenyl)-5-(pentan-3-yl)-1,3,4-oxadiazole] was 30 to 100 nM.
